Earlier results as cited in patent US10125111B2, “Benzofuran compounds for the treatment of hepatitis C” (BRISTOL-MYERS SQUIBB COMPANY, priority 2015, dated 2018).

Test system: HCV
Settings: cited from earlier work

Compound | toxicity during extended dosing (combination regimens with interferon and ribavirin) | sustained efficacy, patients (combination therapy, patients) [%]
CNC(=O)c1c(-c2ccc(F)cc2)oc2cc(N(CCO)S(C)(=O)=O)c(C3CC3)cc12 [HCV-796] | hepatic toxicity | 
alpha-interferon and ribavirin |  | 40
